From paper PMC5762535, “Novel indazole-based small compounds enhance TRAIL-induced apoptosis by inhibiting the MKK7-TIPRL interaction in hepatocellular carcinoma” (Oncotarget, 2017)
Like-named read-outs stand apart in the source and are kept apart here.

Tests used:
HepG2 cells = assay: MTT cell viability assay, HepG2 cells; format: cell-based, human; conditions: 10 µM TRT-0029 or 20 µM TRT-0173 plus TRAIL 100 ng/ml, 24 h
Protocol: (§1) Cell viability was assessed using a 3-(4,5-dimethylthiazol-2-yl)-2,5-diphenyltetrazolium bromide (MTT, Sigma-Aldrich, St. Louis, USA) assay. The cells were seeded at a density of 1 × 10^4 cells per well and treated with the lead compounds and/or TRAIL. After 24 or 48 h, MTT (2 mg/ml) was added to each well, and the absorbance was measured using a microplate reader (Bio-Rad, Hercules, USA) at 570 nm. The cell viability was calculated as the percentage of viable cells in the drug-treated group versus the untreated control using the following equation: cell viability (%) = [OD (drug)-OD (blank)]/[OD (control)-OD (blank)] × 100.

Huh7 tumor xenografts = assay: In vivo Huh7 xenograft assay; parameters: species or system BALB/c nude mice
Source text: Five-week-old female BALB/c nude mice were purchased from SLC Japan and were maintained in accordance with the guidelines of the Institutional Review Committee for Animal Care and Use of the Korea Research Institute of Bioscience and Biotechnology. Protocol approval was obtained from the same committee.
Huh7 cells were harvested and subcutaneously injected (5 × 10^6 cells/mouse) into nude mice (N = 6/group for TRT-0173 or TRT-0029 experiments). When the tumor volume reached ~100 mm^3, the mice were divided into four groups and treated with vehicle, TRAIL (2.5 mg/kg, intraperitoneal), lead compound (TRT-0029 or TRT-0173, 30 mg/kg, intravenously), or lead compound (30 mg/kg, intravenously) combined with TRAIL (2.5 mg/kg, intraperitoneal) daily for 11 days (11 treatments in total). The tumor volumes were measured every 2 days for 11 days after treatment, and tumor volume was calculated according to the following equation: V (mm^3) = width^2 (mm^2) × length (mm)/2. Body weight and tumor mass were measured 11 days after treatment.

caspase-3 and PARP = assay: Western blot of cleaved caspase-3 and PARP in Huh7 cells; format: cell-based, human; conditions: lead compounds co-treated with TRAIL 100 ng/ml, TRAIL tested alone
Protocol: The cells were lysed in lysis buffer (50 mM Tris-HCl, pH 7.4, 150 mM NaCl, 1% Triton™ X-100, 0.1% SDS, 1 mM EDTA, 1 mM Na3VO4, 1 mM NaF, and protease inhibitor cocktail) and clarified by centrifugation at 14,000×g for 20 min at 4°C. The protein samples were then subjected to Western blotting with the indicated antibodies.

Huh7 cells = assay: MTT cell viability assay, Huh7 cells; format: cell-based, human
Protocol: as §1

[1] = MTT cell viability assay, Huh7 cells; format: cell-based, human; conditions: human, Huh7 cells; Huh7, MTT, 10 µM, 24 hrs, without TRAIL; Supplementary Table 3; read-out: Cell viability assay Compound only
Protocol: as §1

Pharmacokinetics in rats = format: in vivo, Sprague-Dawley rats; conditions: rat; for AUC: male, Sprague-Dawley, plasma, after 24 h
Protocol: Male Sprague-Dawley rats anesthetized with ketamine were cannulated with polyethylene tubing in the femoral vein. A solution of lead compound (TRT-0029 or TRT-0173) was prepared by dissolving the compounds in a mixture of dimethyl sulfoxide (DMSO)/ polyethylene glycol 400 (PEG 400)/ distilled water (0.5: 4: 5.5), and was administered to rats by a bolus injection in the femoral vein. Blood samples were collected via the femoral vein 0, 2, 10, and 30 min, as well as 1, 2, 4, 6, 8, and 24 h after intravenous administration. For oral administration, blood was collected 0.25, 0.5, 1, 2, 4, 6, 8, and 24 h after treatment. The plasma fractions were prepared by centrifugation and were stored at −70°C before the liquid chromatography-tandem mass spectrometry (LC/MS/MS) analysis. The concentrations of target compound in the plasma were measured using LC-MS/MS (4000 QTRAP, AB SCIEX, Foster City, CA) in multiple reaction monitoring (MRM) mode. The PK parameters were determined with non-compartmental methods using Phoenix WinNolin (Pharsight, Mountain View, CA). The area under the plasma concentration-time curve (AUC) was calculated using the trapezoidal rule extrapolated to infinity. The terminal elimination half-life (t1/2), and the systemic clearance (CL) were obtained. The peak plasma concentration (Cmax) after oral administration was obtained by visual inspection of the plasma concentration-time plot of each rat.

MKK7-TIPRL interaction = target: T1, MKK7-TIPRL interaction (Homo sapiens, UniProt O14733+O75663); assay: GST pull-down assay of MKK7-TIPRL in 293T cells; format: cell-based; conditions: 10 μM TRT-0029 or 20 μM TRT-0173, 24 h
T1 sequence (O14733 1-419): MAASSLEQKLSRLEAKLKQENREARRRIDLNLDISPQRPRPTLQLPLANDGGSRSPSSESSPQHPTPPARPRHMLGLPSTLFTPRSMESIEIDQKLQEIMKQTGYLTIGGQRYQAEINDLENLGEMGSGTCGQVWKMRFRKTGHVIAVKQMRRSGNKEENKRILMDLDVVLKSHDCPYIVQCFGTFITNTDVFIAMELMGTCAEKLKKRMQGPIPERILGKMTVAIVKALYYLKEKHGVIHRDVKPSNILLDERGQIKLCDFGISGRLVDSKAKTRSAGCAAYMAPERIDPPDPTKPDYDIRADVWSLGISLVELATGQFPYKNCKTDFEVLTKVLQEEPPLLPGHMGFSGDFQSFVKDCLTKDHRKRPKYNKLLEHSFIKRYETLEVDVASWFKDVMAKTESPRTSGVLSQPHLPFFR
T1 sequence (O75663 1-272): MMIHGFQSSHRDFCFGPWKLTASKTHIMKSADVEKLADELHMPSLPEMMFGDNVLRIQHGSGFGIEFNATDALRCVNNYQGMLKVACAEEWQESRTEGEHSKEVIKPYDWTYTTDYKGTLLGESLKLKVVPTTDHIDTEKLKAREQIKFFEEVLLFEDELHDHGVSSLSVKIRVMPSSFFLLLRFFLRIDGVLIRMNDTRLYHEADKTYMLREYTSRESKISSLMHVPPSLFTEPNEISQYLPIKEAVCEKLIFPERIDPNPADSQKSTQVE
Protocol: The full-length cDNAs of human TIPRL and MKK7 were subcloned into the pCGN vector (W. Herr, Cold Spring Harbor Laboratory) and the pEBG vector containing a GST tag to construct the HA-tagged and the GST-tagged plasmids, respectively. 293T cells were transfected with expression vector constructs using the TurboFect Transfection Reagent (Thermo Fisher Scientific, Lafayette, USA) and then were lysed in RIPA buffer (50 mM Tris-HCl, 150 mM NaCl, 1% Triton™ X-100, 0.1% SDS, 1 mM EDTA, 1 mM Na3VO4, and 1 mM NaF) containing complete protease inhibitor cocktail (Roche Applied Science, Indianapolis, USA). Whole-cell extracts were incubated with Glutathione Sepharose 4B (GE Healthcare, Uppsala, Sweden), and the eluted GST-tagged proteins were subjected to Western blotting using the indicated antibodies.

caspase-3 = assay: Caspase 3 activity assay in Huh7 cells; format: cell-based, human; conditions: each compound at its working concentration and time of the table
Protocol: The caspase 3 activity was measured using a caspase-3 luminescent assay kit (Promega, Madison, WI, USA), according to the manufacturer's instructions, and a luminescence plate reader (Molecular Devices Co., Sunnyvale, USA).

For `COc1ccc(S(=O)(=O)Nc2ccc3c(cnn3-c3ccc(F)cc3)c2)cc1` [TRT-0173], the “decrease of HepG2 viability by co-treatment with TRAIL” value (HepG2 cells) was 53%, the “tumor volume / tumor growth at 11 days, compound + TRAIL compared with compound alone” value (Huh7 tumor xenografts; compound 30 mg/kg i.v. plus TRAIL 2.5 mg/kg i.p. daily) was “moderately inhibited tumor growth” and the “reduction of average tumor mass, lead compound + TRAIL” value (Huh7 tumor xenografts; compound 30 mg/kg i.v. plus TRAIL 2.5 mg/kg i.p. daily for 11 days, versus vehicle control) was 42.2%. The “apoptosis signals (cleaved caspase-3, PARP) by Western blotting” value (caspase-3 and PARP) was “activated apoptosis signals”, the “reduction of cell viability of Huh7 cells by co-treatment with TRAIL, compared to TRAIL alone” value (Huh7 cells; 10 μM TRT-0029 or 20 μM TRT-0173 plus TRAIL, 24 h) was about 90% and the viability at 10 µM (Huh7 cells; Homo sapiens, Huh-7, Huh7, MTT, 10 µM, 24 hrs, with TRAIL, Supplementary Table 3, read-out: Cell viability assay Compound + TRAIL) was 7%. For the same compound, the effective working concentration (Huh7 cells; Huh7 cells, various doses with and without TRAIL (100 ng/ml), 24 h) was 20 µM, the viability at 24 h, 10 µM [1] was 53% and the AUC (Pharmacokinetics in rats; iv, i.v. 5 mg/kg, read-out: AUC (i.v.)) was 4270 ng·h/mL. The AUC (Pharmacokinetics in rats; po, p.o. 5 mg/kg, read-out: AUC (p.o.)) was 1150 ng·h/mL, the oral availability (Pharmacokinetics in rats; 5 mg/kg i.v. and p.o.) was 26.8% and the “interaction between MKK7 and TIPRL in GST pull-down assay, compared with untreated cells” value (MKK7-TIPRL interaction) was “significantly decreased the interaction”. The “Caspase 3 activity Compound + TRAIL/Compound” value (caspase-3) was 2.10 ratio.
